Results on 32 compounds are retold here after PubChem BioAssay (NCI).

Holding throughout (assay): NCI anticancer screen, dose series, 48 h
In assay [1] the test system is A498 renal.
The test system of assay [2] is CCRF-CEM leukemia.
The test system of assay [3] is HCT-116 colon.
The subject of assay [4] is M14 melanoma.
The subject of assay [5] is NCI-H460 lung.
For assay [6], the system named is OVCAR-4 ovarian.
Assay [7] relates to SF-539 CNS.
Assay [8] deals with OVCAR-3 ovarian.
The subject of assay [9] is MDA-N.
Assay [10] relates to BT-549 breast.

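Protocol summary: plate cells (96-well), add compound at 5 concentrations, incubate 48 h, interpolate endpoints linearly. GI50 = concentration required for 50% inhibition of growth. TGI: concentration producing complete growth inhibition.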 Some results are limits rather than exact numbers.

Regarding `FC(F)(F)P1C2C=CC(CC2)C1(F)F` (configuration not stated), the TGI in [1], in assay [2], in assay [3], in assay [4], in [5] and in assay [6] was more than 100 µM in each case. This compound registered a TGI in [7] of more than 100 µM.
`CC(O)c1c2c(cc3c1CC1(C3)Cc3cc4c(c(C(C)O)c3C1)CCC4)CCC2` (configuration not stated): the TGI in assay [1] came to 29 µM; in assay [2], 22.1 µM; in assay [3] it was 24.8 µM; in [4], 35.2 µM; in assay [8], 29.4 µM; in assay [6], 17.5 µM. The compound further showed a TGI in assay [7] of 46.4 µM.
Turning to `O=C(O)C(CS)NCc1c2ccccc2[n+]([O-])c2ccccc12` (configuration not stated), the TGI in assay [1] was more than 100 µM; in assay [2], 80.8 µM; in assay [3] it was 62.4 µM; in assay [4] it was more than 100 µM; in assay [5] it was more than 100 µM; in [8], more than 100 µM. In addition, the TGI in assay [6] amounted to 86.6 µM.
Take `CCOc1cc(/C=N\N(C)C)cc(/C=N\N(C)C)c1O`: the TGI in [1], in assay [2], in assay [3], in assay [4], in assay [9] and in [5] was more than 100 µM each time. Besides, the TGI in assay [8] was more than 100 µM; in [6], more than 100 µM; in assay [7], 65.4 µM.
For `CSCCC(NCc1c(O)ccc2ccc(=O)oc12)C(=O)O` (configuration not stated), the TGI in assay [2], in [3], in [4], in assay [9], in assay [5] and in assay [8] was more than 100 µM each time. The TGI in assay [6] and in assay [7] was more than 100 µM throughout.
Regarding `N=C(/C=C/c1ccc(-c2cn3cc(/C=C/C(=N)N4CCCC4)ccc3n2)cc1)N1CCCC1`, the TGI in assay [1], in assay [10], in assay [3], in assay [4], in assay [9] and in [5] was more than 100 µM in each case. In addition, the TGI in [8], in assay [6] and in assay [7] was more than 100 µM in each case.
Regarding `COCCOCN(C(=O)C1=CCC2(CC1)OCCO2)c1ccccc1I`, the TGI in assay [1], in assay [2], in assay [3], in assay [4], in assay [9] and in [5] was more than 50 µM in each case. Moreover, the TGI in assay [8] and in assay [6] was more than 50 µM in each case.
For the compound `CCOC(=O)N1CCN(Cc2cc(=O)n3cc(C)ccc3n2)CC1`, the TGI in assay [10], in assay [2], in [3], in assay [4], in [9] and in [5] was more than 100 µM each time. Further, the TGI in [8], in [6] and in [7] was more than 100 µM in each case.
Consider `Cc1cc2nc(N3C(=O)/C(=C/c4cccc([N+](=O)[O-])c4)N=C3c3ccccc3)sc2cc1C`, for which the TGI was more than 100 µM in [10]; 23.4 µM in [2]; more than 100 µM in assay [3]; more than 100 µM in assay [4]; 34.1 µM in assay [9]; more than 100 µM in [5]. Also, the TGI is more than 100 µM in [8], 96.2 µM in [6] and more than 100 µM in assay [7].
For the compound `O=C(O)CCC(NC(=O)c1ccc(Nc2nc3ccccc3nc2C(=O)O)cc1)C(=O)O` (configuration not stated), the TGI in assay [10], in assay [2], in assay [3], in [4], in assay [9] and in [8] was more than 100 µM in each case. Besides, the TGI in [6] and in assay [7] was more than 100 µM each time.
Turning to `Cc1c(C(=O)CSc2nc3ccc([N+](=O)[O-])cc3[nH]2)c(=O)n(-c2ccccc2)n1C`, the TGI in assay [1], in assay [2], in [3], in assay [4], in assay [5] and in assay [8] was more than 100 µM in each case. In addition, the TGI in assay [6] and in assay [7] was more than 100 µM each time.
With `CC(C)C1CC=NN1C(=O)OC(C)(C)C` (configuration not stated), the TGI in [1], in assay [2], in assay [3], in [4], in [9] and in assay [5] was more than 100 µM in each case. Further, the TGI in assay [8] and in [7] was more than 100 µM in each case.
With `CC(=O)O[C@H]1C(=O)[C@@]2(C)C([C@H](OC(=O)c3ccccc3)[C@]3(O)C[C@H](OC(=O)[C@H](O)[C@H](NC(=O)c4ccccc4)c4ccc(Cl)cc4)C(C)=C1C3(C)C)C1(OC(C)=O)CO[C@@H]1C[C@@H]2O` (some centres not stated), the GI50 in assay [1] is 0.2 µM. In addition, the TGI in assay [1] was determined as 30.4 µM; in assay [2], 12.9 µM; in assay [4], 0.027 µM; in assay [8], 0.0124 µM; in assay [6] it was 22.1 µM; in assay [7], 0.0026 µM.
For `CCN(CC)CCNC(=O)c1ccc([N+](=O)[O-])cc1OC`, the TGI in assay [1], in [2], in assay [3], in assay [4], in [5] and in assay [8] was more than 100 µM each time. Besides, the TGI in assay [6] and in assay [7] was more than 100 µM in each case.
Consider `CSC(SC)=C1C(=O)NN=C1C`, for which the TGI in assay [10], in assay [2], in assay [3], in [4], in [9] and in [5] was more than 100 µM in each case. The TGI in assay [8], in assay [6] and in [7] was more than 100 µM each time.
As for `O=C1NCC2(CCNCC2)N1c1ccccc1`, the TGI in assay [1], in assay [2], in [3], in assay [4], in assay [9] and in assay [5] was more than 100 µM each time. Moreover, the TGI in [8], in assay [6] and in assay [7] was more than 100 µM in each case.
Take `COC(=O)[C@@H]1C=C[C@@H](C#N)n2c(=O)n(-c3ccccc3)c(=O)n21`: the TGI in [1] was more than 100 µM; in assay [10], more than 100 µM; in assay [2] it was 51.3 µM; in assay [3], more than 100 µM; in [4], more than 100 µM; in [8] it was 58.9 µM. The results for the TGI in [6] and in assay [7] were more than 100 µM and 65.3 µM, respectively.
Take `CCOc1ccc2ccccc2c1NC1=NCCO1`: the TGI in assay [1] was 93.8 µM; in assay [2] it was more than 100 µM; in assay [3], more than 100 µM; in assay [4], more than 100 µM; in assay [5] it was 57.7 µM; in assay [6] it was more than 100 µM. In assay [7], this compound came in with a TGI of more than 100 µM.
Regarding `COc1cc(C2CC(c3cccc(Nc4ccncc4)c3)=NN2c2cc(Cl)cc(Cl)c2)cc(OC)c1OC` (configuration not stated), the GI50 in assay [1] was 1.27 µM; in assay [4] it was 1.75 µM; in assay [5] it was 1.73 µM; in [8], 1.73 µM; in assay [7], 1.72 µM. Moreover, the TGI in assay [1] came to 4.22 µM; in [4], 3.36 µM; in [5] it was 3.28 µM; in [8], 3.21 µM; in [7] it was 3.2 µM.
In the case of `CCOc1ccc(N2C(=O)C3c4[nH]c5ccccc5c4C4CCC(C(C)(C)C)CC4C3C2=O)cc1` (configuration not stated), the TGI in assay [1], in assay [2], in [3], in assay [4], in assay [6] and in assay [7] was more than 100 µM in each case.
For `CC(=O)Oc1c(C)cc(-c2cc(C)c(OC(C)=O)c(C)c2)cc1C`, the TGI in assay [10] is more than 100 µM; in assay [2], more than 100 µM; in assay [3], more than 100 µM; in assay [4], more than 100 µM; in assay [9] it was 25.6 µM; in assay [5], more than 100 µM. Besides, the TGI in [8] and in assay [6] was more than 100 µM in each case.
As for `O=C(Cc1ccccc1)NN1C(=O)C(Cl)C1c1cccc(O)c1` (configuration not stated), the TGI in assay [2] stood at 8.44 µM; in [3], 28.9 µM; in assay [4], 31.4 µM; in [5] it was 36.4 µM; in [8], 28.1 µM; in assay [6] it was 40 µM.
Regarding `O=C1C=C(N2CCCC2)C=C(N2CCCC2)C1`, the TGI in assay [2], in assay [3], in [4], in assay [5] and in [8] was more than 100 µM in each case.
As for `CC(=O)OCC1OC(Nc2ccc3nc(C)n(-c4cccc(C)c4)c(=O)c3c2)C(OC(C)=O)C(OC(C)=O)C1OC(C)=O` (configuration not stated), the TGI in [1], in assay [10], in assay [3], in assay [9], in assay [5] and in [8] was more than 62.5 µM in each case. In assay [6], the TGI is more than 62.5 µM.
Regarding `CN1CCN(c2nc3ccccc3nc2C(=O)c2ccc(Cl)cc2)CC1`, the TGI in [1] was more than 100 µM; in [2], more than 100 µM; in [3], more than 100 µM; in [4], 62.8 µM; in assay [9], more than 100 µM; in [5], 80.2 µM. In addition, the TGI in assay [8], in assay [6] and in assay [7] was more than 100 µM in each case.
`O=C1CC2CC=C[C@H]3c4cc5c(cc4C(=O)N1C23)OCO5` (some centres not stated): the TGI in assay [2], in assay [3], in assay [4], in assay [5], in [8] and in assay [7] was more than 50 µM in each case.
In the case of `O=c1[nH]c2cc(C(F)(F)F)ccc2nc1Cc1ccccc1`, the TGI in assay [1], in [10], in assay [2], in assay [3], in assay [4] and in assay [5] was more than 100 µM in each case. For the same compound, the TGI in assay [6] and in assay [7] was more than 100 µM in each case.
Turning to `O=S(=O)(c1cc(Cl)ccc1Cl)N1CCN(c2ccc(Cl)c(Cl)c2)CC1`, the TGI is 56.8 µM in assay [1]; more than 100 µM in [10]; more than 100 µM in assay [2]; more than 100 µM in [3]; more than 100 µM in [4]; 38.5 µM in [8]. In addition, the TGI in [6] was 32.4 µM; in [7] it was 53.5 µM.
Take `COC(=O)c1ccc2c(c1)CC1(C2)Cc2cc3c(c(C(=O)OC)c2C1)CCCC3` (configuration not stated): the TGI in assay [1], in [2], in [3], in assay [9], in assay [5] and in assay [8] was more than 100 µM each time. Also, the TGI in assay [6] and in assay [7] was more than 100 µM in each case.
For `COc1ccc(/C=C2\CN(C(=O)CCN3CCC(=NO)CC3)C/C(=C\c3ccc(OC)cc3)C2=O)cc1`, the GI50 is 1.6 µM in [1]; 2.17 µM in [10]; 3.05 µM in assay [2]; 1.74 µM in assay [3]; 2.04 µM in assay [4]; 2.63 µM in [5]. Further, the results for the GI50 in assay [8], in assay [6] and in [7] were 1.89 µM, 3.34 µM and 1.71 µM, respectively. Further, the TGI came to 3.2 µM in assay [1]; 6.08 µM in assay [10]; 18.9 µM in [2]; 3.23 µM in assay [3]; 4.54 µM in [4]; 6.74 µM in assay [5]. The TGI in assay [8] was found to be 3.56 µM; in [6] it was 17.7 µM; in assay [7], 3.18 µM.
As to `O=C1Nc2cccc3ncn(c23)C2=C1CCCC2`, the TGI in [2], in assay [3], in assay [5] and in assay [7] was more than 100 µM each time.
In the case of `CCCCOC(=O)C(=O)C(CC(C(=O)Cc1ccccc1)c1ccccc1)C(=O)C=C(C)C` (configuration not stated), the TGI in assay [10], in [2], in assay [3], in assay [4], in [9] and in [5] was more than 100 µM each time. Further, the TGI in assay [8], in assay [6] and in assay [7] was more than 100 µM in each case.
